Data: patent publication US8450313B2, “2,3-diaryl- or heteroaryl-substituted 1,1,1-trifluoro-2-hydroxypropyl compounds” (Hoffmann-La Roche Inc., priority 2009, dated 2013)

Target: T1, full length human recombinant glucocorticoid receptor (Homo sapiens, UniProt P04150)
T1 construct: It contains some partially purified full length human recombinant glucocorticoid receptor; purchased Panvera/Invitrogen PV4302
T1 sequence (P04150 1-777): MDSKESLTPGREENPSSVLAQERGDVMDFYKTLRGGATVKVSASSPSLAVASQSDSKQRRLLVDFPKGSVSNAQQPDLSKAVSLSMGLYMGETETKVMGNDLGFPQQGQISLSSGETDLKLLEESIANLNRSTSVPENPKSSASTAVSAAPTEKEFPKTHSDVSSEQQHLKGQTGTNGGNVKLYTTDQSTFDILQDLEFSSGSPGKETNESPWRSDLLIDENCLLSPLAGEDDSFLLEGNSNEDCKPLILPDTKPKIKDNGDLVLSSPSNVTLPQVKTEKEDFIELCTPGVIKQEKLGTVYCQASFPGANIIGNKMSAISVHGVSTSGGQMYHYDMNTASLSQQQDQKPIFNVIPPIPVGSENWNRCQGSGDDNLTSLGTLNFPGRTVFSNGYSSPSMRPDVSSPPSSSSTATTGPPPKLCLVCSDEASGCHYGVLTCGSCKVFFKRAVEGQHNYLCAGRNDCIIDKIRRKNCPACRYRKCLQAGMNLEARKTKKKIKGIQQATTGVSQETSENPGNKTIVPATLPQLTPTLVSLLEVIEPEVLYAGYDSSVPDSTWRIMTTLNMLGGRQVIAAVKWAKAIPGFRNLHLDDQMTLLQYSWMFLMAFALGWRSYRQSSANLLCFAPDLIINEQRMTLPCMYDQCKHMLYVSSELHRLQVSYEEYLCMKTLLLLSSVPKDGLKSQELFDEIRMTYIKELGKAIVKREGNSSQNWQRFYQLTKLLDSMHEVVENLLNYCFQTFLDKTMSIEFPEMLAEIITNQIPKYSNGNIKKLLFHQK
Test: Glucocorticoid Receptor Binding Assay (Glucocorticoid Receptor Competitor Assay far red kit, fluorescence polarization)
Settings: competition with fluorescent GR ligand Fluormone GS Far Red, 3 hours at 22° C., pH 7.4; Ki calculated from IC50 by Cheng-Prusoff
Procedure: Glucocorticoid Receptor Binding Assay
The ability of the substances to bind to the glucocorticoid receptor was determined with the help of a commercial Glucocorticoid Receptor Competitor Assay far red kit provided by Panvera/Invitrogen (PV4302). This kit is used as provided by the supplier. It contains some partially purified full length human recombinant glucocorticoid receptor, a coactivator related GR stabilizing peptide, a tight-binding fluorescent GR ligand Fluormone™ GS Far Red as labeled tracer and a screening buffer. All reagents are prepared and the assay is run according to the recommendations of the kit manufacturer.
Briefly, the GR stabilizing peptide and the human recombinant glucocorticoid receptor are both diluted with the screening buffer (pH 7.4) and are gently mixed (no vortexing) just before the assay and kept on ice until use. The fluorescent-labeled ligand is also diluted with the screening buffer just before the assay and kept on ice until use. The substances to test are pre-diluted in pure DMSO then some water is added to get an intermediate 4.2% DMSO stock solution. Ten microliter of the intermediate stock solution is gently mixed with 5 μA of diluted fluorescent-labeled ligand and 5 μl of diluted human recombinant glucocorticoid receptor in a 384-well plate (low volume, ultraclear, glass plate from Greiner ref 788896). The plate is centrifuged, sealed and incubated for 3 hours at 22° C. in the dark. The polarized fluorescence is measured with a Zeiss-HTS reader or any equivalent equipment (610-660 nm).
All compounds were tested to determine IC50 in a serial dilution experiment. The concentration at which 50% inhibition of the fluorescent GR ligand Fluormone™ GS Far Red is obtained (the IC50) is determined after fitting with a sigmoidal dose-response model of a plot of the logarithm of the concentration versus percent inhibition measured for the different concentrations. Ki's were calculated from IC50 based on Cheng-Prusoff equation (Cheng, Y, Prusoff, W H (1973) Biochem Pharmacol 22, 3099-3108): Ki=IC50/[1+D/Kd] wherein D is the concentration of the fluorescent ligand and Kd is the binding constant for the fluorescent ligand binding to the receptor under the conditions used in the competition experiment.

Ki	SMILES
11.9 nM	C[C@H](c1ccc(-c2ccc(C(=O)O)nc2)cc1Cl)[C@@](O)(c1ccc2c(c1)n(C)c(=O)n2C)C(F)(F)F (relative stereo) [Example 84, 5-{3-Chloro-4-[2-(1,3-dimethyl-2-oxo-2,3-dihydro-1H-benzoimidazol-5-yl)-3,3,3-trifluoro-2-hydroxy-1-methyl-propyl]-phenyl}-pyridine-2-carboxylic acid]
0.8 nM	COc1ccc(Cl)c([C@@H](C)[C@@](O)(c2ccc3oc(=O)n(C)c3c2)C(F)(F)F)c1 (stereo in doubt) [Example 192, 5-[2-(2-Chloro-5-methoxy-phenyl)-1-hydroxy-1-trifluoromethyl-propyl]-3-methyl-3H-benzooxazol-2-one]
119 nM	C[C@H](c1ccc(Oc2ccc(C(=O)O)c(Cl)c2)cc1Cl)[C@@](O)(c1ccc2c(c1)N(C)C(=O)CO2)C(F)(F)F [Example 218, 2-Chloro-4-{3-chloro-4-[(1R,2R)-3,3,3-trifluoro-2-hydroxy-1-methyl-2-(4-methyl-3-oxo-3,4-dihydro-2H-benzo[1,4]oxazin-6-yl)-propyl]-phenoxy}-benzoic acid]
2 nM	COC(=O)c1ccc(Oc2ccc([C@@H](C)[C@@](O)(c3ccc4oc(=O)n(C)c4c3)C(F)(F)F)c(Cl)c2)nc1 (relative stereo) [Example 174, 6-{3-Chloro-4-[3,3,3-trifluoro-2-hydroxy-1-methyl-2-(3-methyl-2-oxo-2,3-dihydro-benzooxazol-5-yl)-propyl]-phenoxy}-nicotinic acid methyl ester]
2.1 nM	COC(=O)c1ccc(Oc2ccc([C@@H](C)[C@@](O)(c3ccc4oc(=O)n(C)c4c3)C(F)(F)F)c(Cl)c2)nn1 (relative stereo) [Example 199, 6-{3-Chloro-4-[3,3,3-trifluoro-2-hydroxy-1-methyl-2-(3-methyl-2-oxo-2,3-dihydro-benzooxazol-5-yl)-propyl]-phenoxy}-pyridazine-3-carboxylic acid methyl ester]
1.6 nM	C[C@H](c1ccc(Oc2ncccn2)cc1Cl)[C@@](O)(c1ccc2oc(=O)n(C)c2c1)C(F)(F)F (stereo in doubt) [Example 196, 5-{2-[2-Chloro-4-(pyrimidin-2-yloxy)-phenyl]-1-hydroxy-1-trifluoromethyl-propyl}-3-methyl-3H-benzooxazol-2-one]
4.5 nM	C[C@H](c1ccc(-c2ccc(C(=O)O)c(F)c2)cc1C(F)(F)F)[C@@](O)(c1ccc2oc(=O)n(C)c2c1)C(F)(F)F (stereo in doubt) [Example 200, 3-Fluoro-4′-[3,3,3-trifluoro-2-hydroxy-1-methyl-2-(3-methyl-2-oxo-2,3-dihydro-benzooxazol-5-yl)-propyl]-3′-trifluoromethyl-biphenyl-4-carboxylic acid]
5.2 nM	C[C@H](c1ccc(Oc2cnc(C(=O)O)cn2)cc1Cl)[C@@](O)(c1ccc2c(c1)n(C)c(=O)n2C)C(F)(F)F (relative stereo) [Example 106, 5-{3-Chloro-4-[2-(1,3-dimethyl-2-oxo-2,3-dihydro-1H-benzoimidazol-5-yl)-3,3,3-trifluoro-2-hydroxy-1-methyl-propyl]-phenoxy}-pyrazine-2-carboxylic acid]
1.3 nM	Cc1cc([C@@](O)([C@@H](C)c2ccc(Oc3ncc(C(=O)O)cc3Cl)cc2Cl)C(F)(F)F)cc(C)c1C#N (stereo in doubt) [Example 150, 5-Chloro-6-{3-chloro-4-[2-(4-cyano-3,5-dimethyl-phenyl)-3,3,3-trifluoro-2-hydroxy-1-methyl-propyl]-phenoxy}-nicotinic acid]
18.5 nM	C[C@H](c1ccc(-c2ccc(F)c(C(=O)O)c2)cc1Cl)[C@@](O)(c1ccc(C#N)cc1)C(F)(F)F (stereo in doubt) [Example 151, 3′-Chloro-4′-[2-(4-cyano-phenyl)-3,3,3-trifluoro-2-hydroxy-1-methyl-propyl]-4-fluoro-biphenyl-3-carboxylic acid]
20 nM	C[C@@H](c1ccc(-c2ccc(C(=O)O)c(F)c2)cc1Cl)[C@](O)(c1cc2c(cc1F)OCC(=O)N2C)C(F)(F)F (stereo in doubt) [Example 137, 3′-Chloro-3-fluoro-4′-[3,3,3-trifluoro-2-(7-fluoro-4-methyl-3-oxo-3,4-dihydro-2H-benzo[1,4]oxazin-6-yl)-2-hydroxy-1-methyl-propyl]-biphenyl-4-carboxylic acid]
2.4 nM	C[C@@H](c1cc(Oc2ccc(F)c(C(=O)O)c2)ccc1Cl)[C@](O)(c1ccc2c(c1)N(C)C(=O)CO2)C(F)(F)F (relative stereo) [Example 11, 5-{4-Chloro-3-[3,3,3-trifluoro-2-hydroxy-1-methyl-2-(4-methyl-3-oxo-3,4-dihydro-2H-benzo[1,4]oxazin-6-yl)-propyl]-phenoxy}-2-fluoro-benzoic acid]
3.2 nM	C[C@@H](c1ccc(Oc2ccc(CC(=O)O)cc2)cc1Cl)[C@](O)(c1ccc2c(c1)N(C)C(=O)CO2)C(F)(F)F (relative stereo) [Example 44, (4-{3-Chloro-4-[3,3,3-trifluoro-2-hydroxy-1-methyl-2-(4-methyl-3-oxo-3,4-dihydro-2H-benzo[1,4]oxazin-6-yl)-propyl]-phenoxy}-phenyl)-acetic acid]
0.7 nM	C[C@H](c1ccc(-c2cncnc2)cc1Cl)[C@@](O)(c1ccc2oc(=O)n(C)c2c1)C(F)(F)F (relative stereo) [Example 194, 5-[2-(2-Chloro-4-pyrimidin-5-yl-phenyl)-1-hydroxy-1-trifluoromethyl-propyl]-3-methyl-3H-benzooxazol-2-one]
1.1 nM	C[C@@H](c1ccc(Oc2ccc(C(=O)O)cn2)cc1Cl)[C@](O)(c1ccc2c(c1)n(C)c(=O)n2C)C(F)(F)F (stereo in doubt) [Example 101, 6-{3-Chloro-4-[2-(1,3-dimethyl-2-oxo-2,3-dihydro-1H-benzoimidazol-5-yl)-3,3,3-trifluoro-2-hydroxy-1-methyl-propyl]-phenoxy}-nicotinic acid]
552 nM	C[C@H](c1ccc(Oc2ncc(C(=O)O)cc2Cl)cc1Cl)[C@@](O)(c1ccc2c(c1)N(C)C(=O)CO2)C(F)(F)F [Example 223, 5-Chloro-6-{3-chloro-4-[(1R,2R)-3,3,3-trifluoro-2-hydroxy-1-methyl-2-(4-methyl-3-oxo-3,4-dihydro-2H-benzo[1,4]oxazin-6-yl)-propyl]-phenoxy}-nicotinic acid]
1.6 nM	COC(=O)c1cnc(Oc2ccc([C@H](C)[C@](O)(c3ccc4c(c3)N(C)C(=O)CO4)C(F)(F)F)c(Cl)c2)c(Cl)c1 (single isomer, unassigned) [Example 222]
2.8 nM	COC(=O)c1ccc(Oc2ccc([C@H](C)[C@](O)(c3cc(C)c(C#N)c(C)c3)C(F)(F)F)c(Cl)c2)nc1 (stereo in doubt) [Example 147, 6-{3-Chloro-4-[2-(4-cyano-3,5-dimethyl-phenyl)-3,3,3-trifluoro-2-hydroxy-1-methyl-propyl]-phenoxy}-nicotinic acid methyl ester]
0.7 nM	CCOC(=O)c1cc(-c2ccc([C@H](C)[C@](O)(c3ccc4c(c3)N(C)C(=O)CO4)C(F)(F)F)c(Cl)c2)ccc1Cl (relative stereo) [Example 39, 4,3′-Dichloro-4′-[3,3,3-trifluoro-2-hydroxy-1-methyl-2-(4-methyl-3-oxo-3,4-dihydro-2H-benzo[1,4]oxazin-6-yl)-propyl]-biphenyl-3-carboxylic acid ethyl ester]
